In US20040241648A1, “Phosphoribosyl pyrophosphate synthetase 1as herbicidal target” (priority 2000, published 2004):

Biological target: T1, Arabidopsis thaliana 5-phosphoribosyl-1-pyrophosphate synthetase 1 (Arabidopsis thaliana, UniProt Q42581)
T1 construct: His-tag (from vector pFastBacHTb); made in house; host or cells: Sf21 insect cells (recombinant baculovirus, pFASTBAC HTb-AtPrs1)
T1 sequence (Q42581 50-403): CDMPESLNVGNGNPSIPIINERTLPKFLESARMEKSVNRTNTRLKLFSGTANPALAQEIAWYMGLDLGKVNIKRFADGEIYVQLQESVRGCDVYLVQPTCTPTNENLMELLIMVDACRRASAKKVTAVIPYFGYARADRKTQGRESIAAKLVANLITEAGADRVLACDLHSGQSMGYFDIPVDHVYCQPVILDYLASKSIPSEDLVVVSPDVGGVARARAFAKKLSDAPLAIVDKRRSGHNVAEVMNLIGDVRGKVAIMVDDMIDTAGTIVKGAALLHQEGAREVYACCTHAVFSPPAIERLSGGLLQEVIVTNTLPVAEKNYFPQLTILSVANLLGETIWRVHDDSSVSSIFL
Experiment: 5-Phosphoribosyl-1-pyrophosphate synthetase 1 assay system (photometric, coupled enzyme, drop in NADH at 340 nm)
Type: biochemical
Details: 0.5-5 mM inhibitor, recombinant enzyme from Sf21 insect cells, 18 μg total protein
Text: To obtain active Arabidopsis thaliana 5-phosphoribosyl-1-pyrophosphate synthetase 1 for high-throughput screening methods, the Arabidopsis thaliana Prs1 fragment is obtained from vector pGEM-T AtPrs1 (FIG. 2) using the restriction enzymes BamHI and EcoRI (cleavage sites inserted via primers RBPRPP3 and RBPRPP4) and cloned into the identically cleaved transfer vector pFastBacHTb (GibcoBRL). The resulting construct pFASTBAC HTb-AtPrs1 is used in accordance with the manufacturer's instructions (GibcoBRL) for generating recombinant Baculovirus. This virus is employed in accordance with the manufacturer's instructions (GibcoBRL) for infecting Sf21 insect cells in order to generate active 5-phosphoribosyl-1-pyrophosphate synthetase 1 enzyme. The specific enzymatic phosphoribosyl-pyrophosphate synthetase 1 activity is measured photometrically after the cells have been sonicated. The following components are employed per 90 μl batch: […]
After the cells had been sonicated in lysis buffer (50 mM NaH2PO4, 300 mM NaCl, pH 7.8), 18 μg of total protein are employed. […] What is measured is the drop in NADH at 340 nm.

SMILES: Nc1ncnc2c1ncn2[C@@H]1O[C@H](COP(=O)(O)OP(=O)(O)OP(=O)(O)O)C[C@H]1O [cordycepin-5′-triphosphate]
- inhibition of the enzymatic activity of the plant 5-phosphoribosyl-1-pyrophosphate synthetase 1: inhibits the enzymatic activity
